Experimental data as given in patent publication US20200306337A1, “Bioactive Metabolities Encoded by the Human Microbiome Using Primary Sequence Alone” (The Rockefeller University, priority 2017, published 2020).
Non-standard residues stand in square brackets, D forms with d. Residues, ends and D or L forms follow the SMILES beside them. *: point of attachment. Tetradecanoyl(3S-OH) = CCCCCCCCCCC[C@H](O)CC(=O)*

Tests used:
MRSA USA300 = assay: Two-dimensional carbenicillin-humimycin A synergy susceptibility assay; assay type: cell-based, Staphylococcus aureus
Protocol: b) Synergy assays. Synergistic β-lactam-humimycin activities were assessed through a two-dimensional (2D) susceptibility assay. Two fold serial dilutions were carried out as described above. Carbenicillin (a β-lactam antibiotic) was diluted serially from left to right, and humimycin was diluted serially from top to bottom. The highest concentration tested for both antibiotics was 32 μg/mL. Fractional inhibitory concentration (FIC) is defined as the ratio of the apparent synergistic MIC divided by the MIC of the antibiotic measured alone.

MRSA clinical isolates = assay type: cell-based, S. aureus
Protocol: a) Standard assays. Minimal inhibitory concentration (MIC) assays were performed in duplicate in 96-well microtiter plates based on the protocol recommended by Clinical and Laboratory Standards Institute (CLSI, 2012). DMSO stock solutions of syn-BNPs (12.8 mg/mL) were added to the first well in a row and serially diluted (2 fold per transfer) across the microtiter plate. The last well was reserved for a peptide-free control. Overnight cultures of bacteria were diluted 5,000-fold and 50 μL was used as an inoculum in each well. MIC values were determined by visual inspection after 18 h incubation (37° C., static growth).

MIC (MRSA USA300; Staphylococcus aureus, carbenicillin alone)	MIC of carbenicillin in the presence of humimycin A (MRSA USA300; in the presence of 2 μg/mL humimycin A (0.25×MIC))	MICs (MRSA clinical isolates)	SMILES	synergy with carbenicillin in inhibiting growth (MRSA USA300; FIC values ≤0.5 defines synergy, n=3)
32 µg/mL	1 µg/mL	–	CC1(C)S[C@@H]2[C@H](NC(=O)C(C(=O)O)c3ccccc3)C(=O)N2[C@H]1C(=O)O (stereo partly shown) [carbenicillin]	–
–	–	8 to 128 µg/mL	CCCCCCCCCCC[C@H](O)CC(=O)N[C@@H](Cc1ccc(O)cc1)C(=O)N[C@@H](CO)C(=O)N[C@H](Cc1ccc(O)cc1)C(=O)N[C@@H](Cc1ccccc1)C(=O)N[C@@H](C(=O)N[C@H](C(=O)N[C@H](C(=O)O)C(C)C)C(C)C)[C@H](C)O [Humimycin A] ({Tetradecanoyl(3S-OH)}-YS[dY]F[dT]VV-OH; C-terminus assumed)	act synergistically
